pIC50: −log10 of the molar value. “Also recorded” adds a separate entry of the source. Like-named read-outs stand apart in the source and are kept apart here.
Experiments:
CDAHFD NASH mouse model [1] = assay: 10-week CDAHFD study, comparison with CWHM12; format: in vivo; details: 4 weeks treatment in 10-week CDAHFD study
Method: (§1) CDAHFD injury is a rodent model of NASH displaying liver fat accumulation, inflammation, and fibrosis (Matsumoto 2013). Three types of studies were performed: 1) prophylactic, Compound 1 in an abbreviated 3-week CDAHFD model; 2) therapeutic, Compound 1 for 6 weeks in the 11- to 12-week CDAHFD model; and 3) Compound 1 for 4 weeks in a 10-week CDAHFD model.
Although pan-αv inhibition with CWHM12 reduced pSMAD and OHP levels, selective αvβ1 inhibition was sufficient for antifibrotic activity.

human integrin αVβ1 [2] = target: T1, human integrin αVβ1 (Homo sapiens, UniProt P05556+P06756); assay: Solid phase integrin binding assay (TGFβ1 LAP binding)
T1 sequence (P06756 31-992 limits assumed): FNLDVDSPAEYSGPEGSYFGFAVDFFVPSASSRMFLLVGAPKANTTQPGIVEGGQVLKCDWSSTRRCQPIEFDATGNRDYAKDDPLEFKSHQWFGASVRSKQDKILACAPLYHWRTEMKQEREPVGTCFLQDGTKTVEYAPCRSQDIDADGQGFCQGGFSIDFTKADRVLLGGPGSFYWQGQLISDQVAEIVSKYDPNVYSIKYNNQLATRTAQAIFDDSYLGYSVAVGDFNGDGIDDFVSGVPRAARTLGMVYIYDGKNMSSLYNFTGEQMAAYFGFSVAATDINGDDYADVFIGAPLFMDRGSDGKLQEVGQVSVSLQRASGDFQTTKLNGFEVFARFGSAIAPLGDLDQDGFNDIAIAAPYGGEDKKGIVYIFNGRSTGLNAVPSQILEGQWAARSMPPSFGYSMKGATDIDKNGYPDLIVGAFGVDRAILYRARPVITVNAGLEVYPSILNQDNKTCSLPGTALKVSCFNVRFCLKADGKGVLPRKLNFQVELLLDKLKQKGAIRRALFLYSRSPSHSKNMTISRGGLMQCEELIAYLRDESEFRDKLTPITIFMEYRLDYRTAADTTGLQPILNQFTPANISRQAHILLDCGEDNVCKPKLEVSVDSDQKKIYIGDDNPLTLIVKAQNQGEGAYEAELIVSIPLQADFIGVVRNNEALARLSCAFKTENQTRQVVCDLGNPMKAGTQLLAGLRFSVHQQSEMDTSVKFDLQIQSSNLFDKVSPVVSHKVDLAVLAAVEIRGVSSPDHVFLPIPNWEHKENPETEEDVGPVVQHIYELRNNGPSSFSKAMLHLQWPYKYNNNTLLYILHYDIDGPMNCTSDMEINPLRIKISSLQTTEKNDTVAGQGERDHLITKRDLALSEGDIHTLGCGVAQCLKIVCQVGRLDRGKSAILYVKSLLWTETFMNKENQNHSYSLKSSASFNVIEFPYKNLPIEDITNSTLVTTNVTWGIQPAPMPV
T1 sequence (P05556 21-728 limits assumed): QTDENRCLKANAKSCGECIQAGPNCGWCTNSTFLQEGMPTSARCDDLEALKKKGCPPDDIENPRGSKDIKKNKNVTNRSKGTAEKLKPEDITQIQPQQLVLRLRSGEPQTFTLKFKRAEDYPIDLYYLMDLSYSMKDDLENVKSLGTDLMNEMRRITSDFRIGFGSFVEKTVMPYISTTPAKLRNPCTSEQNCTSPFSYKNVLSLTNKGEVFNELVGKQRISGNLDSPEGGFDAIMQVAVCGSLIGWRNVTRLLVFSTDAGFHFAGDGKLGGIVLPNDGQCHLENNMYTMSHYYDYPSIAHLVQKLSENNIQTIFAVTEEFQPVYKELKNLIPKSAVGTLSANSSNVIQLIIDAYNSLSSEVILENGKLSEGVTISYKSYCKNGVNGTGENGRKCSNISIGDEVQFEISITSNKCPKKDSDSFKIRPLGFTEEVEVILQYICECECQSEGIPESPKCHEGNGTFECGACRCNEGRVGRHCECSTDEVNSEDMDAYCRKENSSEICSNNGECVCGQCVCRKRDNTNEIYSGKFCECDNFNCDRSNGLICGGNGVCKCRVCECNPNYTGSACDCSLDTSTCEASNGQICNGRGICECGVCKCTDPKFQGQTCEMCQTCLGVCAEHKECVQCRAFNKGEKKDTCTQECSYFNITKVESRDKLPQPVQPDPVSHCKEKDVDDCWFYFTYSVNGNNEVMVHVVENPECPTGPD
Method: (§2) Microplates were coated with recombinant human integrin αVβ1 or αVβ6 (2 μg/mL) in PBS (100 μL/well 25° C., overnight). The coating solution was removed, washed with wash buffer (0.05% Tween 20; 0.5 mM MnCl2; in 1×TBS). The plate was blocked with 200 μL/well of Block Buffer (1% BSA; 5% sucrose; 0.5 mM MnCl2; in 1×TBS) at 37° C. for 2 h. Dilutions of Compound 1 and recombinant TGFβ1 LAP (0.67 μg/mL) in binding buffer (0.05% BSA; 2.5% sucrose; 0.5 mM MnCl2; in 1×TBS) were added. The plate was incubated for 2 hours at 25° C., washed, and incubated for 1 hour with Biotin-Anti-hLAP. Bound antibody was detected by peroxidase-conjugated streptavidin. The IC50 values for the testing compound were calculated by a four-parameter logistic regression.

human integrin αvβ6 [3] = target: T2, human integrin αvβ6 (Homo sapiens, UniProt P06756+P18564); assay: as above
T2 sequence (P06756 31-992 limits assumed): as the sequence (P06756 31-992 limits assumed) above
T2 sequence (P18564 22-707 limits assumed): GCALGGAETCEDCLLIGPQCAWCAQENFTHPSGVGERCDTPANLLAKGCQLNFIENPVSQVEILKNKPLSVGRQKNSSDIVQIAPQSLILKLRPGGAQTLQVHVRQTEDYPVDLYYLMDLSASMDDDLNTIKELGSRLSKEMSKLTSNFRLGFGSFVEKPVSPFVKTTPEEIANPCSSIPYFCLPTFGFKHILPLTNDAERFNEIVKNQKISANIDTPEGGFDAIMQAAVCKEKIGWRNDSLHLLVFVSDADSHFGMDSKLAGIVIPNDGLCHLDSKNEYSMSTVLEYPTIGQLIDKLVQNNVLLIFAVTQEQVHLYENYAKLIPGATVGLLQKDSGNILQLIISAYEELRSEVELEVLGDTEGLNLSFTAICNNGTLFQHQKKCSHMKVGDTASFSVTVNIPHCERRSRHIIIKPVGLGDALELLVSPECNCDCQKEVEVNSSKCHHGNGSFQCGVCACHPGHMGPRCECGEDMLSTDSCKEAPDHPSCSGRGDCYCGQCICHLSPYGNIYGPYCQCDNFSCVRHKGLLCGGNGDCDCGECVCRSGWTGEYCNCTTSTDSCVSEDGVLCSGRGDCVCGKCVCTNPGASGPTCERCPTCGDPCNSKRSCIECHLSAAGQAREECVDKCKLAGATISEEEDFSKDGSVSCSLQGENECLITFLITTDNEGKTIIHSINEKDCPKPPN
Method: as §2

[4] = tested on: precision cut liver slices from cirrhotic NASH patient explants; assay: Profibrotic gene expression and fibrosis biomarkers in precision cut liver slices; format: cell-based, human; design: reduction of gene expression of collagen, type 1, alpha 1 (COL1A1) / reduction of the level of FBN-C in culture media / reduction of PRO-C1 in culture media / reduction of PRO-C3 in culture media / reduction of PRO-C4 in culture media: concentration or dose not given beside the values
Method: The ability of Compound 1 to inhibit the expression of profibrotic genes and decrease biomarkers of fibrosis was measured in precision cut liver slices generated using cirrhotic liver tissues from NASH patient explants and from rodent models of liver fibrosis and NASH.
Data are mean +/−standard deviation from the 5 cirrhotic NASH patients. DMSO was used as the solvent and utilized at a constant concentration (0.1%) across the different groups. […] was used as a positive control.

[5] = tested on: murine CCl4 model of liver fibrosis; assay: 3-week murine CCl4 model of liver fibrosis; format: in vivo, mice; details: all doses, dosed during the final week of injury
Method: Antifibrotic activity of Compound 1 was established in an abbreviated, 3-week, murine CCl4 model of liver fibrosis. CCl4 is a hepatotoxin that when injected into mice results in liver fibrosis (Constandinou 2005). Compound 1 was dosed during the final week of injury.

CDAHFD NASH mouse model [6] = assay: Prophylactic abbreviated 3-week CDAHFD NASH model; format: in vivo; details: high dose
Method: as §1

CDAHFD NASH mouse model [7] = assay: Therapeutic 11- to 12-week CDAHFD injury studies; format: in vivo
Method: as §1
Compound 1 was tested therapeutically in 11- to 12-week CDAHFD injury studies at medium, high and highest doses across 3 independent studies.

[8] = tested on: healthy male and female participants; assay: First-in-human single and multiple ascending dose study; format: in vivo; details: single and multiple (7 days) ascending doses, thus far
Method: Part A of the study was a first-in-human, randomized, double-blind, placebo-controlled, parallel-group, single ascending dose study of the safety, tolerability, and PK of Compound 1 in a maximum of […] healthy male and female (non-childbearing potential) participants. Forty participants will be enrolled in up to 5 sequential cohorts.
Part B of the study is on-going and was initiated after the first 2 cohorts in Part A of the study had been completed. The doses in Part B were determined from Part A of the study and were not higher than the highest dose that was administered in Part A of the study.
Part B of the study is a randomized, double-blind, placebo-controlled, parallel-group, multiple ascending dose study of the PK, PD, safety, and tolerability of Compound 1 administered for 7 days in a maximum of 40 healthy male and female (non-childbearing potential) participants.

human integrin αVβ1 [9] = target: T1, human integrin αVβ1; assay: ALPHASCREEN proximity-based integrin binding assay; design: 6xHis (on the heterodimer); details: read-out: Proximity-Based Assy IC50, αvβ1
Method: (§3) Compound 1 was tested for αVβ1 or αVβ6 integrin biochemical potency using the ALPHASCREEN® (Perkin Elmer, Waltham, Mass.) proximity-based assay (a bead-based, non-radioactive Amplified Luminescent Proximity Homogeneous Assay) as described previously (Ullman E F et al., Luminescent oxygen channeling immunoassay: Measurement of particle binding kinetics by chemiluminescence. Proc. Natl. Acad. Sci. USA, Vol. 91, pp. 5426-5430, June 1994). To gauge the potency of inhibitors of binding to human integrin αVβ1 or αvβ6, the inhibitor compound and the integrin were incubated together with recombinant TGFβ1 LAP and biotinylated anti-LAP antibody plus acceptor and donor beads, following the manufacturer's recommendations. The donor beads were coated with streptavidin. […] All incubations occurred at room temperatures in 50 mM Tris-HCl, pH 7.5, 0.1% BSA supplemented with 1 mM each CaCl2 and MgCl2. The order of reagent addition was as follows: 1. αVβ1 or αVβ6 integrin, test inhibitor Compound 1, LAP, biotinylated anti-LAP antibody and acceptor beads were all added together. 2. After 2 hours, donor beads were added. After another 30 min incubation, samples were read.

human integrin αvβ6 [10] = target: T2, human integrin αvβ6; assay: ALPHASCREEN proximity-based integrin binding assay; design: 6xHis (on the heterodimer); details: read-out: Proximity-Based Assy IC50, αvβ6
Method: as §3

[11] = tested on: Patients with histologically confirmed NASH (F1-F3) or phenotypic NASH; assay: Placebo-controlled, randomized Phase 2a study of licogliflozin, 12 weeks (NCT03205150); format: in vivo, human
Method: Method: Patients with histologically confirmed NASH (F1-F3) or phenotypic NASH (BMI≥27 kg/m^2 in non-Asians or ≥23 kg/m^2 in Asians, ALT≥50 (males) or ≥35 (females) and type 2 diabetes (T2DM)) received daily oral licogliflozin at 150 mg, 30 mg or placebo in a 2:2:1 ratio for 12 weeks (NCT03205150). The primary endpoint was the effect on ALT level after 12 weeks of treatment. Secondary endpoints include improvement in body weight, liver fat content and AST, amongst others. The study size was 110 of which 77 completed (placebo (n=18); licogliflozin 30 mg (n=25) and licogliflozin 150 mg (n=34)) and are included in the interim analysis.

[12] = tested on: healthy subjects, patients with T2DM, obese patients; details: cited from earlier work
[13] = did not achieve statistical significance
[14] = two days of treatment, slices from 5 cirrhotic NASH patients
[15] = all doses (medium, high, highest), therapeutic, 3 independent studies
[16] = 30 mg, 12 weeks, interim analysis
[17] = 150 mg, 12 weeks, interim analysis

## CC(C)(C)c1cc(Br)cc([C@H](CC(=O)O)NC(=O)CNC(=O)c2cc(O)cc(NC3=NCC(O)CN3)c2)c1 (stereo partly drawn) [CWHM12, (3S)—N-[3-hydroxy-5-[(1,4,5,6-tetrahydro-5-hydroxy-2-pyrimidinyl)amino]benzoyl] glycyl-3-[3-bromo-5-(1,1-dimethylethyl)phenyl]-β-alanine]
CDAHFD NASH mouse model [1]
  reduction of OHP concentrations: 30%
  reduction of pSMAD3 levels: 61%

## CC1(C(=O)N[C@@H](CCCCCCCc2ccc3c(n2)NCCC3)C(=O)O)CCOCC1 [Compound 1, (S)-2-(4-methyltetrahydro-2H-pyran-4-carboxamido)-9-(5,6,7,8-tetrahydro-1,8-naphthyridin-2-yl)nonanoic acid]
Human integrin αVβ1 [2]
  pIC50: > 7.30
Human integrin αvβ6 [3]
  pIC50: > 7.30
[4]; [13]
  reduction of PRO-C1 in culture media: 34%
  reduction of PRO-C3 in culture media: 16%
  reduction of PRO-C4 in culture media: 15%
[4]; significant
  reduction of the level of FBN-C in culture media: 26%
[4]; [14]
  metalloproteinase inhibitor 1 (TIMP1) gene expression: reduced
  reduction of gene expression of collagen, type 1, alpha 1 (COL1A1): 39%
[5]
  Levels of phosphorylated SMAD3 (pSMAD3)/SMAD3 in the liver: significantly reduced
  hepatic Col1a1, Col1a2, and Col3a1 expression: significant reduction; also recorded: significantly reduced
CDAHFD NASH mouse model [6]; both studies
  expression of Ehhadh: significantly elevated
CDAHFD NASH mouse model [6]; one of the two studies
  gene expression of collagens: Significantly reduced
CDAHFD NASH mouse model [6]; prophylactic, 3-week CDAHFD
  decrease of pSMAD3 levels in the liver: 19%
CDAHFD NASH mouse model [6]; prophylactic, both studies
  reduction of hepatic OHP concentrations: ~30%
CDAHFD NASH mouse model [7]; [15]
  reduction of hepatic OHP: up to 38%
  reduction of pSMAD3 levels: up to 57%
CDAHFD NASH mouse model [7]; high and highest doses
  Collagen gene expression (Col1a1 and Col3a1): significantly reduced
  gene expression of profibrotic markers Ctgf, Mmp-2, and Timp1: significantly reduced
CDAHFD NASH mouse model [7]; mouse, in vivo
  Gene expression of Acox1 and Ehhadh: significantly increased
  collagen area (histological analysis): significant reduction
  composite fibrosis score (second harmonic generation imaging): quantity and quality of the collagen fibers: significant reduction
CDAHFD NASH mouse model [7]; separate sentence of b235, dose not stated
  reduction in OHP concentration: 24%
CDAHFD NASH mouse model [1]
  reduction of OHP concentrations: 24%
  reduction of pSMAD3 levels: 40%
[8]
  tolerability in healthy volunteers: well tolerated
Human integrin αVβ1 [9]
  pIC50: 6.60 to 7.30
Human integrin αvβ6 [10]
  pIC50: > 7.30

## CCc1ccc([C@@H]2O[C@H](CO)[C@@H](O)[C@H](O)[C@H]2O)cc1Cc1ccc2c(c1)OCCO2 [licogliflozin, (2S,3R,4R,5S,6R)-2-(3-((2,3-dihydrobenzo[b][1,4]dioxin-6-yl)methyl)-4-ethylphenyl)-6-(hydroxymethyl)tetrahydro-2H-pyran-3,4,5-triol]
[11]; [16]
  Absolute reduction in liver fat: 2.71%
  Diarrhea (most common adverse event), patients reporting: 40%
  Placebo adjusted reduction in HbA1c (absolute change): 0.81%
  Relative reduction in liver fat content: 10%
  patients achieving at least 5% absolute reduction in liver fat: 43.5%
  proportion of patients with at least a 30% relative reduction in liver fat content: 39.5%
  reduction in AST: 23%
  reduction in GGT: 26%
[11]; 30 mg, Week 12, full analysis
  placebo-adjusted reduction in GGT: 24%
  placebo-adjusted reduction in serum ALT: 21%
  placebo-adjusted reduction in serum AST: 21%
[11]; [17]
  Absolute reduction in liver fat: 4.45%
  Diarrhea (most common adverse event), patients reporting: 76.5%
  Placebo adjusted reduction in HbA1c (absolute change): 0.96%
  Relative reduction in liver fat content: 22%
  patients achieving at least 5% absolute reduction in liver fat: 63.3%
  proportion of patients with at least a 30% relative reduction in liver fat content: 66.7%
  reduction in AST: 30%
  reduction in GGT: 32%
[11]; 150 mg, Week 12, full analysis
  placebo-adjusted reduction in GGT: 36%
  placebo-adjusted reduction in serum ALT: 32%
  placebo-adjusted reduction in serum AST: 32%
[11]; 12 weeks of treatment
  safety and tolerability: safe and tolerable
[11]; 12 weeks, full analysis
  absolute and relative liver fat content: Dose-dependent decreases
[11]; Week 12, full analysis
  HOMA-IR (insulin sensitivity): improvements
  HbA1c (glycemic control): improvements
  body weight compared with placebo: Statistically significant reductions
  waist circumference compared with placebo: Statistically significant reductions
[11]; both doses (150 mg and 30 mg), 12 weeks, interim analysis
  Placebo adjusted reduction in body weight: ~4%
[12]; 150 mg daily dose, 12 week treatment
  weight loss in obese patients: ~6%
[12]; 150 mg once daily, twelve weeks, normoglycemic and dysglycemic subjects
  safety and tolerability: generally safe and well tolerated
[12]; 150 mg once daily, twelve weeks
  dose-limiting toxicity: diarrhea
[12]; healthy subjects and patients with T2DM
  safety and tolerability: safe and tolerated
[12]; human, in vivo
  pharmacokinetic profile: favorable pharmacokinetic profile
[12]; over 2 weeks, healthy subjects and patients with T2DM
  placebo-adjusted weight loss: up to 3%
